Reference: US20250270206A1, “COMPOSITIONS AND METHODS FOR INHIBITION OF RAS” (TheRas, Inc., priority 2022, published 2025)

Assays:
[1] = target: T1, GDP-loaded KRAS4b (amino acids 1-169) G12C/C118S (Homo sapiens, UniProt P01116, C118S/G12C); test: MALDI-TOF MS covalent Cys12 modification, GDP-loaded KRAS G12C; assay type: binding; conditions: 15 minutes reaction time, 1 μM protein, 1:2.5 protein to compound ratio
T1 construct: KRAS4b (amino acids 1-169) G12C/C118S protein; made in house
Procedure: (§1) MALDI-TOF MS analysis was performed using 1 μM protein target, and 1:2.5 protein to compound ratio was used.
(§2) Reaction: 1 μM of GppNHp, GTP, or GDP-loaded KRAS4b (amino acids 1-169) G12C/C118S protein (produced in-house by Protein Expression Laboratory, FNLCR/Leidos Biomed) in 20 mM 4-(2-hydroxyethyl)-1-piperazineethanesulfonic acid (HEPES) buffer containing 150 mM NaCl, 1 mM MgCl2, pH 7.3 was prepared freshly before assay. Ten-μL aliquots of protein were dispensed onto low volume 384-well plate, then 375 nL DMSO, and 25 nL of tested compounds from 5 mM DMSO stocks were added to appropriate wells using ECHO 555 acoustic liquid handler (Labcyte Inc.). For each reaction/assay, three blanks were prepared by mixing 10 μL of protein solution with 400 nL DMSO. The contents of the wells were carefully mixed by aspiration, and then each plate was sealed with an adhesive cover, centrifuged at 2000 g for 1 minute, and kept in the dark at room temperature until 5 min, 15 min, 30 min, 2 h, or 6 h collections.
(§3) Target pretreatment: Before each assay MALDI target (Bruker MPT 384 ground steel BC) was pre-treated by pipetting on each spot 0.75 μL of saturated sinapinic acid in acetonitrile (ACN).
(§4) Sample preparation: At collection time point, 2 μL of reaction mixtures were pipetted out into 20 μL MALDI matrix solution (saturated solution of sinapinic acid in 1:1 ACN:water solution containing 0.75% trifluoroacetic acid (TFA)) deposited on 384 well polypropylene plate. Resulting solution was mixed by aspiration, centrifuged at 2000 g for 1 minute, then 1 μL aliquots were dispensed on pre-treated MALDI target using Beckman Coulter Biomek FX^P 96/384-Span-8 Laboratory Automation Workstation. Finally, the MALDI target was dried under mild vacuum to produce spots with fine crystalline structure.
(§5) Measurements: MALDI-TOF measurements were performed on a Bruker Daltonics rapifleX Tissuetyper TOF-TOF mass spectrometer using linear mode and mass range from 18.6 to 21.6 kDa. Detector gain was set to 3.3× (483 V), sample rate to 5 GS/s, real time smoothing to medium (175 MHz), laser smart beam pattern was set to: “MS Thin Layer M5”, and the laser frequency was 10000 Hz. Spectra were automatically collected using custom AutoXecute method. Laser power was auto adjusted using fuzzy control. The peak selection range was set to be between 19000 and 21500 Da. Peak evaluation uses half width parameter set to be smaller than 40 Da for processed spectrograms (centroid peak detection: smoothed by SavitzkyGolay algorithm using 7 m/z width and 2 cycles; baseline was subtracted using median algorithm with flatness 1 and median level 0.01). Fuzzy control used Proteins/Oligonucleotides protocol with minimum half width 1/10 times above threshold. Up to 40000 satisfactory shots were collected in 10000 shot steps. Dynamic termination was implemented to finish data collection when peak signal/noise ratio reached a value of 50.
(§6) Spectra processing: Spectra were smoothed by SavitzkyGolay algorithm using 7 m/z width and three cycles. Centroid peak detection algorithm was used with signal to noise threshold set to 6, relative intensity threshold 4%, peak width 10 m/z and median baseline subtraction using flatness of 1 and median level of 0.01. Peak intensity and area under the peak were evaluated and recorded for all peaks between 19,300 Da and 21,550 Da.
(§7) Calculation of percent modification: Percent modification was calculated as a ratio of peak height for protein modified by compound to sum of peak height of remaining protein plus peak height for protein modified by compound. If multiple modifications were observed each was calculated as a ratio of peak height for given modification versus sum of peak heights for all observed protein species. Data reported in Table 5 are from the 15 minutes reaction time point.

[2] = target: T2, GTP-loaded KRAS4b (amino acids 1-169) G12C/C118S (Homo sapiens, UniProt P01116, C118S/G12C); test: MALDI-TOF MS covalent Cys12 modification, GTP-loaded KRAS G12C; assay type: binding; conditions: 15 minutes reaction time, 1 μM protein, 1:2.5 protein to compound ratio
T2 construct: KRAS4b (amino acids 1-169) G12C/C118S protein; made in house
Procedure: as §1, §2, §3, §4, §5, §6, §7

pERK in NCI-H358 cells = test: Cell-based pERK HTRF assay; conditions: Homo sapiens, 0.5 h, 30 min incubation
Procedure: pERK HTRF assays (Perkin Elmer) were used to determine the effectiveness of compounds of the present disclosure in disrupting KRAS G12C protein/effector signaling in cells.
On Day 1, cells (NCI-H358) were seeded into 96-well plates at 4×10^4 cells/well in complete growth media (RPMI, 10% FBS).
On Day 2, cells were treated with compounds at 0.25% DMSO. The source plate was created with compounds diluted in media at 5-fold the final assay concentration. The compounds were run in a 9-point concentration curve starting at 75 μM, with a 3-fold dilution between concentrations. 20 μL was transferred onto the cell plates (final volume in wells was 100 μL). Plates were harvested after 30 min incubation by aspirating media and adding kit-supplied 1× supplemented lysis buffer to all wells (75 μL per well). Plates were then placed on a plate shaker and incubated at 850 rpm for an additional 30 min.
Antibody mixture solution was prepared by diluting aliquoted d2 and Eu Cryptate antibodies 1:20 in kit supplied detection buffer, then mixed the diluted antibodies solutions (1:1 v:v). 4 μL of this solution was then added to a 384-well detection plate (Perkin Elmer; 6008230).
Samples were homogenized by pipetting up and down and then transferred (16 μL of cell lysates) from the 96-well cell culture plate to two wells of the HTRF 384-well detection plate containing the antibody solution. Plates were centrifuged (524 g for 1 min) and allowed to incubate between 4 and 24 h at room temperature. Maximum signal is reached after 4 h incubation time and remains stable over a period of 24 hours. Therefore, readings can be made between 4 and 24 h of incubation. Plates were centrifuged again (524 g for 1 min) and analyzed on the EnVision plate reader using the following settings: Excitation 320 nm, Bandwidth 75 nm; Emission 615 nm, Bandwidth 85 nm; Gain 100%; Flashes 100; Lag 60 μs.

[3] = target: T3, GppNHp-loaded KRAS4b (amino acids 1-169) G12C/C118S (Homo sapiens, UniProt P01116, C118S/G12C); test: MALDI-TOF MS covalent Cys12 modification, GppNHp-loaded KRAS G12C; assay type: binding; conditions: 15 minutes reaction time, 1 μM protein, 1:2.5 protein to compound ratio
T3 construct: KRAS4b (amino acids 1-169) G12C/C118S protein; made in house
Procedure: as §1, §2, §3, §4, §5, §6, §7

[4] = target: T4, Avi-KRAS G12C (1-169) GppNHp/RAF1 RBD-3×FLAG (52-151) (Homo sapiens, UniProt P01116, G12C); test: KRAS G12C-effector (RAF1 RBD) protein:protein interaction HTRF disruption assay; assay type: biochemical; conditions: PPI HTRF
T4 construct: Avi-KRAS G12C (1-169) GppNHp
Procedure: A protein:protein interaction (PPI) Homogeneous Time Resolved Fluorescence (HTRF) assay was used to determine the effectiveness of compounds of the present disclosure in disrupting KRAS G12C protein and effector (RAF1) binding.
The HTRF assay used the following reagents and proteins: 50 nM Avi-KRAS G12C (1-169) GppNHp/RAF1 RBD-3×FLAG (52-151); 75 nM Avi-RAF1 RBD-3×FLAG; Assay Buffer: 50 mM Tris pH 7.5, 100 mM NaCl, 5 mM MgCl2, 0.1% BSA, 0.01% Tween 20, 10% DMSO; Bead Buffer: 50 mM Tris pH 7.5, 0.01% Tween 20; Assay volume: 20 μL (384 well plate-low volume format); and Compound titration: 30-0.02 μM, 3× dilution series.
The HTRF assay employed the following protocol:
Compounds were dispensed in assay plate (384-well, Grenier Bione #784075) using Echo (model 555) with dose response settings: 200 nL final volume, titration from 100 μM as a 10-point dilution series. KRAS proteins were prepared in assay buffer, and dispensed on plates, 5 μL per well, then incubated for 1 h at room temperature, with 700 rpm shaking. RAF1 RBD were prepared in assay buffer, dispensed onto plates, 5 μL per well, and then incubated for 1 h at room temperature, with 700 rpm shaking. Reagent mix was then prepared and dispensed on plates, 10 μL per well, and then incubated for 1 h at room temperature, with 700 rpm shaking.
Plates were analyzed on an Envision plate reader using the following setting: Excitation 320 nm, Bandwidth 75 nm, Emission 615 nm, Bandwidth 85 nm; Gain 100%; Flashes 100; Lag 60 μs. Data was reported as percentage of activity, with DMSO as 100%. Data was plotted and analyzed using Prism 8.

GDP-KRAS G12C percent of modification [1]	GTP-KRAS G12C percent of modification [2]	IC50 (pERK in NCI-H358 cells) [nM]	GppNHp-KRAS G12C percent of modification [3]	IC50 [4] [nM]	Compound
A (percent of modification ≥70%)	A (percent of modification ≥70%)	≤ 100	A (percent of modification ≥70%)	≤ 500	C=CC(=O)N1CCC(N(C)c2nc(OC[C@@]34CCCN3C[C@H](F)C4)nc3c(Cl)c(-c4ccc(F)c5sc(N)c(C#N)c45)ncc23)[C@H]1COC (mixture of isomers) [Compound 29, 4-(4-((rac-(2S,3R)-1-acryloyl-2-(methoxymethyl)pyrrolidin-3-yl)(methyl)amino)-8-chloro-2-(((2R,7aS)-2-fluorotetrahydro-1H-pyrrolizin-7a(5H)-yl)methoxy)pyrido[4,3-d]pyrimidin-7-yl)-2-amino-7-fluorobenzo[b]thiophene-3-carbonitrile]
A (percent of modification ≥70%)	–	> 1000	A (percent of modification ≥70%)	≤ 500	C=CC(=O)N1CC[C@@H](N(C)c2nc(OC[C@@]34CCCN3C[C@H](F)C4)nc3c(F)c(-c4ccc(F)c5sc(N)nc45)ncc23)C1 [Compound 4]
A (percent of modification ≥70%)	A (percent of modification ≥70%)	≤ 100	A (percent of modification ≥70%)	≤ 500	C=CC(=O)N1CC[C@@H](N(C)c2nc(OC[C@@]34CCCN3C[C@H](F)C4)nc3c(F)c(-c4c(F)cc(F)c5sc(N)nc45)ncc23)C1 [Compound 5]
A (percent of modification ≥70%)	A (percent of modification ≥70%)	100 to 1000	A (percent of modification ≥70%)	–	C=CC(=O)N1CCC(N(C)c2nc(OC[C@@H]3CC4(CC4)CN3C)nc3c(F)c(-c4ccc(F)c5sc(N)c(C#N)c45)ncc23)[C@H]1COC (stereo partly shown) [Compound 21]
A (percent of modification ≥70%)	A (percent of modification ≥70%)	100 to 1000	A (percent of modification ≥70%)	–	C=CC(=O)N1CCC(N(C)c2nc(OC[C@@H]3CCCN3C)nc3c(F)c(-c4ccc(F)c5sc(N)c(C#N)c45)ncc23)[C@H]1C (stereo partly shown) [Compound 22]
A (percent of modification ≥70%)	A (percent of modification ≥70%)	100 to 1000	A (percent of modification ≥70%)	–	C=CC(=O)N1CCC(N(C)c2nc(OC[C@@H]3CC4(CC4)CN3C)nc3c(F)c(-c4ccc(F)c5sc(N)c(C#N)c45)ncc23)[C@H]1C (stereo partly shown) [Compound 24]
A (percent of modification ≥70%)	A (percent of modification ≥70%)	100 to 1000	A (percent of modification ≥70%)	–	C=CC(=O)N1CCC(N(C)c2nc(OC[C@@H]3CCCN3C)nc3c(F)c(-c4ccc(F)c5sc(N)c(C#N)c45)ncc23)[C@H]1COC (stereo partly shown) [Compound 26]
C (10%≤percent of modification <50%)	D (percent of modification <10%)	> 1000	D (percent of modification <10%)	–	C=CC(=O)N1CCC(N(C)c2nc(OCCOC)nc3c(F)c(-c4ccc(F)c5sc(N)c(C#N)c45)ncc23)[C@H]1C (stereo partly shown) [Compound 31]
C (10%≤percent of modification <50%)	D (percent of modification <10%)	> 1000	D (percent of modification <10%)	–	C=CC(=O)N1CCC(N(C)c2nc(OC)nc3c(F)c(-c4ccc(F)c5sc(N)c(C#N)c45)ncc23)[C@H]1C (stereo partly shown) [Compound 32]
C (10%≤percent of modification <50%)	D (percent of modification <10%)	> 1000	D (percent of modification <10%)	–	C=CC(=O)N1CCC(N(C)c2nc(OCCO)nc3c(F)c(-c4ccc(F)c5sc(N)c(C#N)c45)ncc23)[C@H]1C (stereo partly shown) [Compound 35]
C (10%≤percent of modification <50%)	D (percent of modification <10%)	> 1000	D (percent of modification <10%)	–	C=CC(=O)N1CCC(N(C)c2ncnc3c(F)c(-c4ccc(F)c5sc(N)c(C#N)c45)ncc23)[C@H]1C (stereo partly shown) [Compound 36]
